Measurements taken from patent US20190152986A1, “CRYSTAL FORM A OF MILBEMYCIN A3 OXIME AND PREPARATION METHOD THEREOF” (Zhejiang Hisun Pharmaceutical Co., Ltd., priority 2016, published 2019).

Columns and labels:
Assay type in all cases: physicochemical
[1] = Photodegradation (light box, 600 w/m^2, 24 hrs)
Experimental: According to the ICH requirement, the total illuminance requirement of 200 w·hr/m^2 and 1,200,000 lux·hr is required for photodegradation. If the illuminance is 600 w/m^2, the ICH requirement is met, and the illumination time needs at least 9 hrs.
Approximately 600 mg of the sample was weighed, placed evenly in a weighing bottle, placed into a light box with an illuminance of 600 w/m^2 and illuminated for 24 hrs, taken out, placed into a desiccator and cooled to room temperature, and the weight loss on drying was measured.
(§1) The HPLC conditions for content determination are as follows: […]

[2] = Oxidative degradation (30% hydrogen peroxide, 24 hours)
Experimental: 1) Oxidative Degradation A sample of 50 mg was weighed accurately and added to a 100.0 ml volumetric flask, dissolved by adding 10 ml methanol, 1.0 ml of 30% hydrogen peroxide was added, standing for 24 hours, then was diluted to the scale with methanol.
as §1

[3] = Degradation stability test: original sample and overall comparison (HPLC content determination)
Text: Meanwhile, the degradation stabilities of A3/A4 oxime and the crystal form A of A3 oxime were compared in the invention, and the degradation conditions are as follows:
as §1

[4] = Protection from light (black PE bag and aluminum foil bag in light box, 18 hrs)
Experimental: About 600 mg of the sample was weighed, placed evenly in a weighing bottle, the weighing bottle containing the sample was put into a black PE bag, and then the PE bag was packaged with an aluminum foil bag, the aluminum foil bag was placed into a light box with an illuminance of 600 w/m^2. After illumination of 18 hrs, taken out, placed into a desiccator and cooled to room temperature, and the weight loss on drying was measured.
as §1

[5] = Illumination: 600 w/m^2 for 24 hrs
[6] = Oxidation: 30% hydrogen peroxide in methanol, standing for 24 hours
[7] = Protection from light: PE bag and aluminum foil bag, light box 600 w/m^2, 18 hrs

Total Impurity increment ([1]; Illumination, versus original sample): 1.2485%
Content [1, 5]: 96.8%
Total Impurity [1, 5]: 1.57%
Total Impurity increment ([2]; Oxidation, versus original sample): −0.0847%
Content [2, 6]: 98.3%
Total Impurity [2, 6]: 0.2368%
Content ([3]; Original sample, HPLC): 98.1%
Total Impurity ([3]; Original sample, HPLC): 0.3215%
Total Impurity increment ([4]; Protection from light, versus original sample): 0.0156%
Content [4, 7]: 96.9%
Total Impurity [4, 7]: 0.3371%
SMILES: CC1=C[C@H]2C(=O)O[C@H]3C[C@@H](C/C=C(\C)C[C@@H](C)/C=C/C=C4\CO[C@H](/C1=N\O)[C@@]42O)O[C@@]1(CC[C@H](C)[C@@H](C)O1)C3 [crystal form A of A3 oxime, Milbemycin A3 oxime]
stability (degradation stability test results) ([3]; overall comparison of Table 2): significantly better than that of A3/A4 oxime
